Reference: patent US20080221086A1, “Novel Inhibitors of Glutaminyl Cyclase” (PROBIODRUG AG, priority 2006, published 2008)

Biological target: hQC (Homo sapiens, UniProt Q16769)
Assay: Fluorometric assay of glutaminyl cyclase (QC) inhibition, H-Gln-βNA or H-Gln-AMC substrate
Assay type: biochemical
Settings: read-out: IC50
How it was run: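 Ki values were obtained by fitting progress curves to a competitive-inhibition equation, and the rapid screen used 4 mM inhibitor with substrate at 1 KM. Both readouts coupled pyroglutamyl aminopeptidase at pH 8.0 and 30° C: H-Gln-βNA at 0.2 mM (ex/em 320/410 nm) or H-Gln-AMC (380/460 nm).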

Chain of hQC (Q16769 29-361): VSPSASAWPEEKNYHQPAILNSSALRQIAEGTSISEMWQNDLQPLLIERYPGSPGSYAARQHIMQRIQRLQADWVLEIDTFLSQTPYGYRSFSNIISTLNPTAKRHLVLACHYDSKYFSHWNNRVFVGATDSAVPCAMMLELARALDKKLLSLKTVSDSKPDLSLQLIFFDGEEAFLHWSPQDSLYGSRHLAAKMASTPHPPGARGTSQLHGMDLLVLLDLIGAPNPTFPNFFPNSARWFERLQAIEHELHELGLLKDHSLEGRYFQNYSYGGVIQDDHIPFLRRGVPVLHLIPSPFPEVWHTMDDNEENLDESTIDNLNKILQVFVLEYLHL

O=C1N/C(=N\C2CCCc3ccccc32)C(c2c(F)ccc(Cl)c2F)N1c1ccc2nc[nH]c2c1 (centres unmarked) [Compound 228, 1-(3H-Benzoimidazol-5-yl)-5-(3-chloro-2,6-difluoro-phenyl)-4-1,2,3,4-tetrahydro-naphthalen-1-ylimino-imidazolidin-2-one]
IC50: 0.004 µM

OC(CN=C1NC(=S)N(c2ccc3[nH]cnc3c2)C1c1cc(F)cc(F)c1)c1ccccc1 (centres unmarked) [Compound 229, 1-(1H-Benzoimidazol-5-yl)-5-(3,5-difluoro-phenyl)-4-2-hydroxy-2-phenyl-ethylimino-imidazolidine-2-thione]
IC50: 8.5 µM

Cc1ccc2c(C3/C(=N\Cc4ccccc4)NC(=O)N3c3ccc4[nH]cnc4c3)c[nH]c2c1 (centres unmarked) [Compound 230, 1-(1H-Benzoimidazol-5-yl)-4-benzylimino-5-(6-methyl-1H-indol-3-yl)-imidazolidin-2-one]
IC50: 0.004 µM

O=C1CCCN1CCCN=C1NC(=S)N(c2ccc3[nH]cnc3c2)C1c1ccc2nsnc2c1 (centres unmarked) [Compound 231, 1-{3-1-(1H-Benzoimidazol-5-yl)-5-benzo[c][1,2,5]thiadiazol-5-yl-2-thioxo-imidazolidin-(4Z)-ylideneamino-propyl}-pyrrolidin-2-one]
IC50: 4 µM

O=C1N/C(=N/CCCc2ccccc2)C(c2c[nH]c3cc(F)ccc23)N1c1ccc2[nH]cnc2c1 (centres unmarked) [Compound 232, 1-(1H-Benzoimidazol-5-yl)-5-(6-fluoro-1H-indol-3-yl)-4-3-phenyl-propylimino-imidazolidin-2-one]
IC50: 2.2 µM

O=C1N/C(=N/CCN2CCOCC2)C(c2ccc3ccccc3c2)N1c1ccc2[nH]cnc2c1 (centres unmarked) [Compound 233, 1-(1H-Benzoimidazol-5-yl)-4-2-morpholin-4-yl-ethylimino-5-naphthalen-2-yl-imidazolidin-2-one]
IC50: 2.2 µM

COC(=O)C(C)/N=C1\NC(=O)N(c2ccc3[nH]cnc3c2)C1c1ccccc1 (centres unmarked) [Compound 234, Methyl 2-(1-(1H-benzo[d]imidazol-5-yl)-2-oxo-5-phenylimidazolidin-4-ylideneamino)propanoate]
IC50: 7.6 µM

O=C1N/C(=N\c2ccc3c(c2)OCCO3)C(c2ccc3c(c2)OCCO3)N1c1ccc2[nH]cnc2c1 (centres unmarked) [Compound 235, 1-(1H-Benzoimidazol-5-yl)-5-(2,3-dihydro-benzo1,4dioxin-6-yl)-4-2,3-dihydro-benzo1,4dioxin-6-ylimino-imidazolidin-2-one]
IC50: 0.004 µM

O=C1N/C(=N\C2CCCc3ccccc32)C(c2cc(Br)cs2)N1c1ccc2nc[nH]c2c1 (centres unmarked) [Compound 236, 1-(3H-Benzoimidazol-5-yl)-5-(4-bromo-thiophen-2-yl)-4-1,2,3,4-tetrahydro-naphthalen-1-ylimino-imidazolidin-2-one]
IC50: 2.2 µM

Cc1ccc(C2/C(=N/c3c(Cl)cccc3Cl)NC(=S)N2c2ccc3nc[nH]c3c2)cc1 (centres unmarked) [Compound 237, 1-(3H-Benzoimidazol-5-yl)-4-2,6-dichloro-phenylimino-5-p-tolyl-imidazolidine-2-thione]
IC50: 7.6 µM

O=C1N/C(=N\C2CCCCC2O)C(c2ccc3nsnc3c2)N1c1ccc2[nH]cnc2c1 (centres unmarked) [Compound 238]
IC50: 0.004 µM

Cc1ccc2occ(C3/C(=N/CCCc4ccccc4)NC(=O)N3c3ccc4[nH]cnc4c3)c(=O)c2c1 (centres unmarked) [Compound 239, 1-(1H-Benzoimidazol-5-yl)-5-(6-methyl-4-oxo-4H-chromen-3-yl)-4-(3-phenyl-propylimino)-imidazolidin-2-one]
IC50: 0.4 µM

S=C1N/C(=N\C(Cc2ccccc2)c2ccccc2)C(C2=CCCCC2)N1c1ccc2[nH]cnc2c1 (centres unmarked) [Compound 240, 1-(1H-Benzoimidazol-5-yl)-5-cyclohex-1-enyl-4-1,2-diphenyl-ethylimino-imidazolidine-2-thione]
IC50: 8.5 µM

O=C1CCCN1CCC/N=C1/NC(=O)N(c2ccc3[nH]cnc3c2)C1c1cccc(Br)c1 (centres unmarked) [Compound 241, 1-(1H-Benzoimidazol-5-yl)-5-(3-bromo-phenyl)-4-3-(2-oxo-pyrrolidin-1-yl)-propylimino-imidazolidin-2-one]
IC50: 0.004 µM

CN(C)c1ccc(C2/C(=N/C3CCc4ccccc43)NC(=O)N2c2ccc3[nH]cnc3c2)cc1 (centres unmarked) [Compound 242, 1-(1H-Benzoimidazol-5-yl)-5-(4-dimethylamino-phenyl)-4-indan-1-ylimino-imidazolidin-2-one]
IC50: 0.004 µM

CC1=CC(C)C(C2/C(=N/CC(=O)N3CCCN(C)CC3)NC(=O)N2c2ccc3[nH]cnc3c2)CC1 (centres unmarked) [Compound 243, 1-(1H-Benzoimidazol-5-yl)-5-(2,4-dimethyl-cyclohex-3-enyl)-4-2-(4-methyl-1,4diazepan-1-yl)-2-oxo-ethylimino-imidazolidin-2-one]
IC50: 5.8 µM

O=C1N/C(=N\C2CCCC2)C(c2cc(F)cc(F)c2)N1c1ccc2[nH]cnc2c1 (centres unmarked) [Compound 244, 1-(1H-Benzoimidazol-5-yl)-4-cyclopentylimino-5-(3,5-difluoro-phenyl)-imidazolidin-2-one]
IC50: 0.4 µM

CCc1ccccc1/N=C1\NC(=O)N(c2ccc3[nH]cnc3c2)C1c1ccccc1 (centres unmarked) [Compound 245, 1-(1H-Benzoimidazol-5-yl)-4-2-ethyl-phenylimino-5-phenyl-imidazolidin-2-one]
IC50: 7.6 µM

O=C1N/C(=N\C2CCCC2)C(c2coc3ccccc3c2=O)N1c1ccc2[nH]cnc2c1 (centres unmarked) [Compound 246, 1-(1H-Benzoimidazol-5-yl)-4-cyclopentylimino-5-(4-oxo-4H-chromen-3-yl)-imidazolidin-2-one]
IC50: 7.6 µM

O=C1CCCN1CCC/N=C1\NC(=O)N(c2ccc3[nH]cnc3c2)C1c1ccnc2ccccc12 (centres unmarked) [Compound 247, 1-(1H-Benzoimidazol-5-yl)-4-3-(2-oxo-pyrrolidin-1-yl)-propylimino-5-quinolin-4-yl-imidazolidin-2-one]
IC50: 3.1 µM

O=C(C/N=C1/NC(=O)N(c2ccc3nc[nH]c3c2)C1c1ccc2[nH]ccc2c1)N1CCC(O)CC1 (centres unmarked) [Compound 248, 1-(3H-Benzoimidazol-5-yl)-4-2-(4-hydroxy-piperidin-1-yl)-2-oxo-ethylimino-5-(1H-indol-5-yl)-imidazolidin-2-one]
IC50: 0.4 µM

COC(=O)C(C)/N=C1\NC(=S)N(c2ccc3[nH]cnc3c2)C1c1ccc(C)cc1 (centres unmarked) [Compound 249, Methyl 2-(1-(1H-benzo[d]imidazol-5-yl)-2-thioxo-5-p-tolylimidazolidin-4-ylideneamino)propanoate]
IC50: 5.8 µM

O=C(C/N=C1\NC(=O)N(c2ccc3nc[nH]c3c2)C1c1c(F)ccc(Cl)c1F)N1CCCCC1 (centres unmarked) [Compound 250, 1-(3H-Benzoimidazol-5-yl)-5-(3-chloro-2,6-difluoro-phenyl)-4-2-oxo-2-piperidin-1-yl-ethylimino-imidazolidin-2-one]
IC50: 4.9 µM

S=C1N/C(=N/Cc2ccccc2)C(c2ccc(Cl)cc2)N1c1ccc2[nH]cnc2c1 (centres unmarked) [Compound 251, 1-(1H-Benzoimidazol-5-yl)-4-benzylimino-5-(4-chloro-phenyl)-imidazolidine-2-thione]
IC50: 4 µM

O=C1CCCN1CCC/N=C1\NC(=S)N(c2ccc3[nH]cnc3c2)C1c1cc2ccccc2s1 (centres unmarked) [Compound 252, 1-(3-(5-(benzo[b]thiophen-2-yl)-1-(1H-benzo[d]imidazol-5-yl)-2-thioxoimidazolidin-4-ylideneamino)propyl)pyrrolidin-2-one]
IC50: 7.6 µM

Cc1cccc(C2/C(=N/CCCN(C)C)NC(=O)N2c2ccc3[nH]cnc3c2)c1 (centres unmarked) [Compound 253, 4-(3-(Dimethylamino)propylimino)-1-(1H-benzo[d]imidazol-5-yl)-5-m-tolylimidazolidin-2-one]
IC50: 9.4 µM
